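Tested at 5 concentrations; 48 h exposure; 96-well plates; endpoints linearly interpolated, else capped at highest concentration. At the TGI there is no net growth.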
System: SN12K1 renal
Assay: NCI anticancer screen, dose series, 48 h

Structure (SMILES) | TGI [µM]
CC1CCC(NC(=O)N(CCCl)N=O)CC1 (configuration not stated) | 67
COc1cc(C[C@H]2c3cc(OC)c(OC)cc3CCN2C)c(Oc2cc3c(cc2OC)-c2c(OC)c(OC)cc4c2[C@H](C3)N(C)CC4)cc1OC | 15.4

— PubChem BioAssay (NCI)
